US12030880B2, “Iminosulfanone compound as bromodomain protein inhibitor and pharmaceutical composition and medical use thereof” (CHIA TAI TIANQING PHARMACEUTICAL GROUP CO., LTD., priority 2018, dated 2024)

What was measured:
[1] = molecular target: BRD4 (BD1) (Homo sapiens (Human), UniProt O60885); test: In vitro BRD4 (BD1) enzymatic activity assay (HTRF); assay type: binding; conditions: GST-BRD4 (BD1, 44-168 aa)
Method: In the present application, IC50 values of the compounds in inhibiting BRD4 (BD1) enzyme binding reaction were determined by homogeneous time resolved fluorescence (HTRF). A compounds was serially diluted 5-fold with 100% DMSO starting from 0.2 mM (7 concentrations in total), and then 2 μL of the compound at each concentration was added to 48 μL of a reaction buffer (20 mM HEPES pH 7.5, 150 mM NaCl, 5 mM DTT, 0.005% Tween 20, and 100 μg/mL BSA) for dilution, and mixed well. 2.5 μL of the resulting mixture was added to a 384-well plate (OptiPlate-384, purchased from PerkinElmer), then 5 μL of GST-BRD4 (BD1, 44-168 aa) (final concentration: 1 nM) was added, and the resulting mixture was centrifuged, and fully mixed. 2.5 μL of a short peptide Biotin-AHA-SGRGK(Ac)GGK(Ac)GLGK(Ac)GGAK(Ac) RHRKV (final concentration: 100 nM) was then added to initiate the reaction (total reaction volume: 10 μL). The 384-well plate was placed in an incubator at 23° C. to react for 1 hour, and then 5 μL of Eu3+ cryptate-labled anti-GST antibody (purchased from Cisbio) and 5 μL of Streptavidin-XL-665 (purchased from Cisbio) were added to terminate the reaction. After being incubated in the incubator for another 1 hour, the fluorescence values (excited at 320 nm, emitted light at 665 nm and 620 nm being detected, and the ratio of the two being the enzyme binding signal) were read on Envision (purchased from PerkinElmer). The binding strength of each compound to BRD4 (BD1) protein was determined respectively at 7 concentrations, and the data were calculated using GraphPad Prism software to obtain the IC50 value of the compound.

[2] = molecular target: BRD4 (BD2) (Homo sapiens (Human), UniProt O60885); test: In vitro BRD4 (BD2) enzymatic activity assay (HTRF); assay type: binding; conditions: GST-BRD4 (BD2, 349-460 aa)
Method: In the present application, IC50 values of the compounds in inhibiting BRD4 (BD2) enzyme binding reaction were determined by homogeneous time resolved fluorescence (HTRF). A compound was serially diluted 5-fold with 100% DMSO starting from 1 mM (7 concentrations in total), and then 2 μL of the compound at each concentration was added to 18 μL of a reaction buffer (20 mM HEPES pH 7.5, 150 mM NaCl, 5 mM DTT, 0.005% Tween 20, and 100 μg/mL BSA) for dilution. After being mixed well, 2 μL of the compound at each concentration was added to 48 μL of the above reaction buffer for dilution, and mixed well (final concentration of the compound in DMSO: 0.1%). 2.5 μL of the resulting mixture was added to a 384-well plate (OptiPlate-384, purchased from PerkinElmer), then 5 μL of GST-BRD4 (BD2, 349-460 aa) (final concentration: 2 nM) was added, and the resulting mixture was centrifuged, and fully mixed. 2.5 μL of a peptide Biotin-AHA-SGRGK(Ac)GGK(Ac)GLGK(Ac)GGAK(Ac) RHRKV (final concentration: 200 nM) was then added to initiate the reaction (total reaction volume: 10 μL). The 384-well plate was placed in an incubator at 23° C. to react for 1 hour, and then 5 μL of Eu3+ cryptate-labled anti-GST antibody (purchased from Cisbio) and 5 μL of Streptavidin-XL-665 (purchased from Cisbio) were added to terminate the reaction. After being incubated in the incubator for another 1 hour, the fluorescence values (excited at 320 nm, emitted light at 665 nm and 620 nm being detected, and the ratio of the two being the enzyme binding signal) were read on Envision (purchased from PerkinElmer). The binding strength of each compound to BRD4 (BD2) protein was determined respectively at 7 concentrations, and the data were calculated using GraphPad Prism software to obtain the IC50 value of the compound.

[3] = test system: MV4-11 cells; test: Cell proliferation activity assay in MV4-11; assay type: cell-based; conditions: Homo sapiens, inhibiting cell proliferation, 72 hours, Cell-Titer Blue
Method: (§1) Human acute lymphoblastic leukemia cell line MV4-11 cells were cultured in PRIM1640 medium plus 10% fetal bovine serum (FBS, purchased from Biological Industries, BI) and 1% penicillin/streptomycin double antibody (P/S, purchased from Life Technology) at 37° C. with 5% CO2. On the day before the compound test, MV4-11 cells were spread in a 96-well plate (purchased from Corning) at a concentration of 8000 cells/195 μL/well. After 24 hours, the compound was serially diluted 4-fold with 100% DMSO starting from 10 mM (9 concentrations in total), and then 2 μL of the compound at each concentration was added to 48 μL of PRIM1640 medium for dilution. 5 μL of the diluted compound at each concentration was added to the wells spread with the cell suspension, and the compound and cells were co-incubated in a cell incubator for 72 hours (3 days). Then the mixture was added with 35 μL of Cell-Titer Blue reagent (purchased from Promega) and incubated for another 4 hours. The fluorescence values (excited at 560 nm, detected at 590 nm) were then read on Flexstation III, and the data were calculated using GraphPad Prism software to give IC50 value of the compound in inhibiting cell proliferation.

[4] = test system: Kasumi-1 cells; test: Cell proliferation activity assay in Kasumi-1; assay type: cell-based; conditions: Homo sapiens, inhibiting cell proliferation, 72 hours, Cell-Titer Blue
Method: as §1, with “myeloblastic” for “lymphoblastic”, “Kasumi-1” for “MV4-11”, “20%” for “10%”, “5000” for “8000”

[5] = Animal pharmacokinetic study on compounds; assay type: in vivo; conditions: rat, po; male rats, single intragastric administration, 5 mg/kg, plasma
Method: Three healthy adult male rats that obtained from Beijing Vital River Laboratory Animal Technology Co., Ltd were used for the animal pharmacokinetic experiment. A compound was suspended in 2% absolute ethanol, 5% tween 80, 20% polyethylene glycol 400, and 73% (5% hydroxypropylmethyl cellulose in water) (V/V/V/V) at a concentration of 1 mg/mL. The administration volume was 5 mL/kg, and animals were treated with a single intragastric administration at a dose of 5 mg/kg. Animals were fasted overnight prior to the experiment, and the fasting time was from 10 hours before administration to 4 hours after administration. Blood was sampled at 0.25, 0.5, 1, 2, 4, 6, 8 and 24 hours after administration. Animals were lightly anesthetized with isoflurane, and approximately 0.4 mL of whole blood was collected from the orbital venous plexus using a glass blood collection tube, and placed in a heparin anticoagulation tube. The sample was centrifuged at 4200 rpm for 5 minutes at 4° C., and then the plasma was transferred to a centrifuge tube and stored at −80° C. until analyzed. In the plasma sample analysis, test compounds and internal standards (warfarin or propranolol) were extracted from rat plasma by acetonitrile protein precipitation, and the extracts were analyzed by LC/MS/MS. The measured plasma concentration-time data of the individual animals were analyzed using a non-compartmental model of WinNonlin (version no. 5.2.1; Pharsight) software to give pharmacokinetic parameters as shown in Table 3 below: the maximum (peak) plasma drug concentration Cmax; the time to peak Tmax; the half-life T1/2 and the area under the plasma concentration-time curve extrapolated to infinity AUC0-inf.

IC50 [1]	IC50 [2]	IC50 [3]	AUC(0-inf) [5]	Cmax [5]	Tmax [5]	half-life [5]	Compound	IC50 [4]
0.93 nM	0.35 nM	8.3 nM	2300 ng·h/mL	459 ng/mL	0.83 h	2.94 h	Cn1cc(-c2cc(N=S(C)(C)=O)cnc2Oc2ccc(F)cc2F)c2cc[nH]c2c1=O [Example 4, 4-{2-(2,4-difluorophenoxy)-5-{[dimethyl(oxo)-λ^6-sulfanylidene]amino}-pyridin-3-yl}-6-methyl-1,6-dihydro-7H-pyrrolo[2,3-c]pyridin-7-one]	4.4 nM
4.8 nM	0.66 nM	9.8 nM	2690 ng·h/mL	610 ng/mL	1 h	2.9 h	Cn1cc(-c2cc(N=S(C)(C)=O)ccc2Oc2ccc(F)cc2F)c2cc[nH]c2c1=O [Example 5, 4-{2-(2,4-difluorophenoxy)-5-{[dimethyl(oxo)-λ^6-sulfanylidene]amino}phenyl}-6-methyl-1,6-dihydro-7H-pyrrolo[2,3-c]pyridin-7-one]	15.4 nM
86.4 nM	0.4 nM	120 nM	–	–	–	–	CCNC(=O)c1cc2c(-c3cc(N=S(C)(C)=O)cnc3Oc3c(C)cc(F)cc3C)cn(C)c(=O)c2[nH]1 [Example 16, 4-{5-{[dimethyl(oxo)-λ^6-sulfanylidene]amino}-2-(4-fluoro-2,6-dimethylphenoxy)pyridin-3-yl}-N-ethyl-6-methyl-7-oxo-6,7-dihydro-1H-pyrrolo[2,3-c]pyridine-2-carboxamide]	20.7 nM
–	–	3.14 nM	–	–	–	5.25 h	Cn1cc(-c2nc(N=S(C)(C)=O)ccc2Oc2ccc(F)cc2F)c2cc[nH]c2c1=O [Example 18, 4-{3-(2,4-difluorophenoxy)-6-{[dimethyl(oxo)-λ^6-sulfanylidene]amino}-pyridin-2-yl}-6-methyl-1,6-dihydro-7H-pyrrolo[2,3-c]pyridin-7-one]	1.56 nM
7.3 nM	0.61 nM	54 nM	–	–	–	–	Cn1cc(-c2cc(N=S(C)(C)=O)ncc2Oc2ccc(F)cc2F)c2cc[nH]c2c1=O [Example 19, 4-{5-(2,4-difluorophenoxy)-2-{[dimethyl(oxo)-λ^6-sulfanylidene]amino}-pyridin-4-yl}-6-methyl-1,6-dihydro-7H-pyrrolo[2,3-c]pyridin-7-one]	7.37 nM
12.9 nM	0.27 nM	75 nM	–	–	–	–	Cc1cccc(Cl)c1Oc1ncc(N=S(C)(C)=O)cc1-c1cn(C)c(=O)c2[nH]ccc12 [Example 20, 4-{2-(2-chloro-6-methylphenoxy)-5-{[dimethyl(oxo)-λ^6-sulfanylidene]amino}-pyridin-3-yl}-6-methyl-1,6-dihydro-7H-pyrrolo[2,3-c]pyridin-7-one]	9.25 nM
10.7 nM	0.13 nM	138 nM	–	–	–	–	CCNC(=O)c1cc2c(-c3cc(N=S(C)(C)=O)cnc3Oc3c(C)cccc3Cl)cn(C)c(=O)c2[nH]1 [Example 21, 4-{2-(2-chloro-6-methylphenoxy)-5-{[dimethyl(oxo)-λ^6-sulfanylidene]amino}-pyridin-3-yl}-N-ethyl-6-methyl-7-oxo-6,7-dihydro-1H-pyrrolo[2,3-c]pyridine-2-carboxamide]	18 nM
